Results published in patent US8394952B2 (Vertex Pharmaceuticals Incorporated, priority 2006, dated 2013).

Target: Plk1 (Homo sapiens, UniProt P53350)
Experiment: biochemical

Sequence of Plk1 (P53350 20-338): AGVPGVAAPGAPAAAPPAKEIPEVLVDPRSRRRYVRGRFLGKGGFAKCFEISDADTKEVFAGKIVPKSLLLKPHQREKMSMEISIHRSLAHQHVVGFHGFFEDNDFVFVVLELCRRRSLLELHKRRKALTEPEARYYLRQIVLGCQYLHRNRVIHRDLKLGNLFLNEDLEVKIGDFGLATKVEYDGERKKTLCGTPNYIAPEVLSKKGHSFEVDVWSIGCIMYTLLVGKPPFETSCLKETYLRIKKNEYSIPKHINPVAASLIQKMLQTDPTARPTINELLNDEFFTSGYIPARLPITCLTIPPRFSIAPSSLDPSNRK

SMILES	Ki [nM]
COc1cc(C(=O)NCCN2CCC2)ccc1Nc1ncc2c(n1)N(C1CCCC1)CC(C)(C)C(=O)N2C [Compound I-38]	< 10
CNC(=O)c1ccc(Nc2ncc3c(n2)N(C2CC2)CC(C)(C)C(=O)N3C)c(OC)c1 [Compound I-30, 4-(9-cyclopropyl-6,7,8,9-tetrahydro-5,7,7-trimethyl-6-oxo-5H-pyrimido[4,5-b][1,4]diazepin-2-ylamino)-3-methoxy-N-methylbenzamide]	10 to 100
CN1C(=O)C(C)(C)CN(C2CCCC2)c2nc(Nc3cccc4c3CNC4=O)ncc21 [Compound I-124, 2-(1-oxoisoindolin-4-ylamino)-9-cyclopentyl-8,9-dihydro-5,7,7-trimethyl-5H-pyrimido[4,5-b][1,4]diazepin-6(7H)-one]	10 to 100
CNC(=O)c1ccc(Nc2ncc3c(n2)N(C2CCCC2)CC(C)(C)C(=O)N3C)c(OC)c1 [Compound I-16, 4-(9-cyclopentyl-6,7,8,9-tetrahydro-5,7,7-trimethyl-6-oxo-5H-pyrimido[4,5-b][1,4]diazepin-2-ylamino)-3-methoxy-N-methylbenzamide]	< 10
COc1cc(C(=O)NCc2ccccc2)ccc1Nc1ncc2c(n1)N(C1CCCC1)CC(C)(C)C(=O)N2C [Compound I-201]	< 10
COc1cc(C(=O)NCCC(F)(F)F)ccc1Nc1ncc2c(n1)N(C1CCCC1)CC(C)(C)C(=O)N2C [Compound I-132, 4-(9-cyclopentyl-6,7,8,9-tetrahydro-5,7,7-trimethyl-6-oxo-5H-pyrimido[4,5-b][1,4]diazepin-2-ylamino)-N-(3,3,3-trifluoropropyl)-3-methoxybenzamide]	< 10
COc1cc(C(=O)N[C@@H]2CC[C@@H](O)C2)ccc1Nc1ncc2c(n1)N(C1CCCC1)CC1(CC1)C(=O)N2C [Compound I-282, 4-(9′-cyclopentyl-5′-methyl-6′-oxo-5′,6′,8′,9′-tetrahydrospiro[cyclopropane-1,7′-pyrimido[4,5-b][1,4]diazepine]-2′-ylamino)-N-((1R,3R)-3-hydroxycyclopentyl)-3-methoxybenzamide]	< 10
COc1cc(C(=O)NC2(CO)CC2)ccc1Nc1ncc2c(n1)N(C1CCCC1)CC(C)(C)C(=O)N2C [Compound I-266]	< 10
CN1C(=O)C(C)(C)CN(C2CCCC2)c2nc(Nc3cccc(-c4cccnc4)c3)ncc21 [Compound I-153, 2-(3-(pyridin-3-yl)phenylamino)-9-cyclopentyl-8,9-dihydro-5,7,7-trimethyl-5H-pyrimido[4,5-b][1,4]diazepin-6(7H)-one]	10 to 100
COc1cc(C(=O)N[C@H]2CC[C@H](O)CC2)ccc1Nc1ncc2c(n1)N(C1CCCC1)CC1(CC1)C(=O)N2C [Compound I-251, 4-(9′-cyclopentyl-5′-methyl-6′-oxo-5′,6′,8′,9′-tetrahydrospiro[cyclopropane-1,7′-pyrimido[4,5-b][1,4]diazepine]-2′-ylamino)-N-((1R,4R)-4-hydroxycyclohexyl)-3-methoxybenzamide]	< 10
CN1C(=O)C(C)(C)CN(C2CCCC2)c2nc(Nc3ccc(-n4cncn4)cc3)ncc21 [Compound I-49, 2-(4-(1H-1,2,4-triazol-1-yl)phenylamino)-9-cyclopentyl-8,9-dihydro-5,7,7-trimethyl-5H-pyrimido[4,5-b][1,4]diazepin-6(7H)-one]	10 to 100
COc1cc(C(=O)NN2CCCC2)ccc1Nc1ncc2c(n1)N(C1CCCC1)CC1(CC1)C(=O)N2C [Compound I-253, 4-(9′-cyclopentyl-5′-methyl-6′-oxo-5′,6′,8′,9′-tetrahydrospiro[cyclopropane-1,7′-pyrimido[4,5-b][1,4]diazepine]-2′-ylamino)-3-methoxy-N-(pyrrolidin-1-yl)benzamide]	< 10
CN1C(=O)C(C)(C)CN(C2CCCC2)c2nc(Nc3cccc(C(=O)NC4CNC4)c3)ncc21 [Compound I-156, 3-(9-cyclopentyl-6,7,8,9-tetrahydro-5,7,7-trimethyl-6-oxo-5H-pyrimido[4,5-b][1,4]diazepin-2-ylamino)-N-(azetidin-3-yl)benzamide]	10 to 100
CN1C(=O)C(C)(C)CN(C2CCCC2)c2nc(Nc3cccc(C(=O)NC4CN(C(=O)OC(C)(C)C)C4)c3)ncc21 [Compound I-143, 3-[3-(9-Cyclopentyl-5,7,7-trimethyl-6-oxo-6,7,8,9-tetrahydro-5H-pyrimido[4,5-b][1,4]diazepin-2-ylamino)-benzoylamino]-azetidine-1-carboxylic acid tert-butyl ester]	10 to 100
COc1cc(C(=O)NCC(O)C(F)(F)F)ccc1Nc1ncc2c(n1)N(C1CCCC1)CC(C)(C)C(=O)N2C (stereo not drawn) [Compound I-278, 4-(9-cyclopentyl-5,7,7-trimethyl-6-oxo-6,7,8,9-tetrahydro-5H-pyrimido[4,5-b][1,4]diazepin-2-ylamino)-3-methoxy-N-(3,3,3-trifluoro-2-hydroxypropyl)benzamide]	< 10
COc1cc(C(=O)NC2CCC2)ccc1Nc1ncc2c(n1)N(C1CCCC1)CC(C)(C)C(=O)N2C [Compound I-94, 4-(9-cyclopentyl-6,7,8,9-tetrahydro-5,7,7-trimethyl-6-oxo-5H-pyrimido[4,5-b][1,4]diazepin-2-ylamino)-N-cyclobutyl-3-methoxybenzamide]	< 10
CN1C(=O)Cc2cc(Nc3ncc4c(n3)N(C3CCCC3)CC(C)(C)C(=O)N4C)ccc21 [Compound I-125, 2-(1-methyl-2-oxoindolin-5-ylamino)-9-cyclopentyl-8,9-dihydro-5,7,7-trimethyl-5H-pyrimido[4,5-b][1,4]diazepin-6(7H)-one]	10 to 100
COc1cc(C(=O)NC(C)C)ccc1Nc1ncc2c(n1)N(C1CCCC1)CC1(CC1)C(=O)N2C [Compound I-263, 4-(9′-cyclopentyl-5′-methyl-6′-oxo-5′,6′,8′,9′-tetrahydrospiro[cyclopropane-1,7′-pyrimido[4,5-b][1,4]diazepine]-2′-ylamino)-N-isopropyl-3-methoxybenzamide]	< 10
CN1C(=O)C(C)(C)CN(C2CCCC2)c2nc(Nc3ccc(NC(=O)C(F)(F)F)cc3)ncc21 [Compound I-78, N-(4-(9-cyclopentyl-6,7,8,9-tetrahydro-5,7,7-trimethyl-6-oxo-5H-pyrimido[4,5-b][1,4]diazepin-2-ylamino)phenyl)-2,2,2-trifluoroacetamide]	10 to 100
CN1C(=O)C(C)(C)CN(C2CCCC2)c2nc(Nc3ccc(-n4ccnc4)cc3)ncc21 [Compound I-48, 2-(4-(1H-imidazol-1-yl)phenylamino)-9-cyclopentyl-8,9-dihydro-5,7,7-trimethyl-5H-pyrimido[4,5-b][1,4]diazepin-6(7H)-one]	< 10
COc1cc(C(=O)NC2CCN(C)CC2)ccc1Nc1ncc2c(n1)N(C1CCCC1)C[C@@H](C)C(=O)N2C [Compound I-22, 4-((R)-9-cyclopentyl-6,7,8,9-tetrahydro-5,7-dimethyl-6-oxo-5H-pyrimido[4,5-b][1,4]diazepin-2-ylamino)-3-methoxy-N-(1-methylpiperidin-4-yl)benzamide]	< 10
COc1cc(C(=O)NCCN2CCCC2)ccc1Nc1ncc2c(n1)N(C1CCCC1)CC(C)(C)C(=O)N2C [Compound I-34, 4-(9-cyclopentyl-6,7,8,9-tetrahydro-5,7,7-trimethyl-6-oxo-5H-pyrimido[4,5-b][1,4]diazepin-2-ylamino)-3-methoxy-N-(2-(pyrrolidin-1-yl)ethyl)benzamide]	< 10
CC(=O)Nc1ccc(C)c(Nc2ncc3c(n2)N(C2CCCC2)CC(C)(C)C(=O)N3C)c1 [Compound I-163, N-(3-(9-cyclopentyl-6,7,8,9-tetrahydro-5,7,7-trimethyl-6-oxo-5H-pyrimido[4,5-b][1,4]diazepin-2-ylamino)-4-methylphenyl)acetamide]	< 10
COc1cc(C(=O)N[C@@H]2CCN(C)C2)ccc1Nc1ncc2c(n1)N(C1CCCC1)CC(C)(C)C(=O)N2C [Compound I-26, 4-(9-cyclopentyl-6,7,8,9-tetrahydro-5,7,7-trimethyl-6-oxo-5H-pyrimido[4,5-b][1,4]diazepin-2-ylamino)-3-methoxy-N—((R)-1-methylpyrrolidin-3-yl)benzamide]	< 10
CCc1cc(C(=O)NC)ccc1Nc1ncc2c(n1)N(C1CCCC1)CC(C)(C)C(=O)N2C [Compound I-118, 4-(9-cyclopentyl-6,7,8,9-tetrahydro-5,7,7-trimethyl-6-oxo-5H-pyrimido[4,5-b][1,4]diazepin-2-ylamino)-3-ethyl-N-methylbenzamide]	< 10
COc1cc(C(=O)NC(C)C)ccc1Nc1ncc2c(n1)N(C1CCCC1)CC(C)(C)C(=O)N2C [Compound I-238, 4-(9-cyclopentyl-5,7,7-trimethyl-6-oxo-6,7,8,9-tetrahydro-5H-pyrimido[4,5-b][1,4]diazepin-2-ylamino)-N-isopropyl-3-methoxybenzamide]	< 10
CCC1CN(C2CCCC2)c2nc(Nc3ccc(C(=O)NC)cc3OC)ncc2N(C)C1=O (stereo not drawn) [Compound I-190, 4-(9-cyclopentyl-7-ethyl-5-methyl-6-oxo-6,7,8,9-tetrahydro-5H-pyrimido[4,5-b][1,4]diazepin-2-ylamino)-3-methoxy-N-methylbenzamide]	< 10
COc1cc(C(=O)NCc2ccc(S(C)(=O)=O)cc2)ccc1Nc1ncc2c(n1)N(C1CCCC1)CC(C)(C)C(=O)N2C [Compound I-214, 4-(9-cyclopentyl-5,7,7-trimethyl-6-oxo-6,7,8,9-tetrahydro-5H-pyrimido[4,5-b][1,4]diazepin-2-ylamino)-3-methoxy-N-(4-(methylsulfonyl)benzyl)benzamide]	< 10
COc1cc(C(=O)NCCc2ccccc2)ccc1Nc1ncc2c(n1)N(C1CCCC1)CC(C)(C)C(=O)N2C [Compound I-203, 4-(9-cyclopentyl-5,7,7-trimethyl-6-oxo-6,7,8,9-tetrahydro-5H-pyrimido[4,5-b][1,4]diazepin-2-ylamino)-3-methoxy-N-phenethylbenzamide]	< 10
CNC(=O)c1ccc(Nc2ncc3c(n2)N(CC2CC2)CC(C)(C)C(=O)N3C)c(OC)c1 [Compound I-58, 4-(9-(cyclopropylmethyl)-6,7,8,9-tetrahydro-5,7,7-trimethyl-6-oxo-5H-pyrimido[4,5-b][1,4]diazepin-2-ylamino)-3-methoxy-N-methylbenzamide]	< 10
